According to patent US8729088B2, “Toll-like receptor modulators and treatment of diseases” (The Regents of the University of California, priority 2009, dated 2014):

Assays:
TLR7 = assay: Cytokine induction in BMDM from wild type and TLR7 deficient mice; assay type: cell-based, mouse; settings: BMDM from TLR7 deficient mice
Experimental: In vitro measurements of cytokine induction were performed using the mouse leukemic monocyte macrophage cell line, RAW264.7. […] BMDM were prepared from C57BL/6 and TLR7 deficient mice as described in Wu, C. C et al., (2007) “Immunotherapeutic activity of a conjugate of a Toll-like receptor 7 ligand”, Proc Natl Acad Sci USA 104, 3990-5.
In general, RAW264.7 cells or BMDM were incubated with various concentrations of conjugates for 18 hours at 37° C., 5% CO2 and culture supernatants were collected. The levels of cytokines (IL-6, IL-12 or TNF-α in the supernatants were determined by ELISA (BD Biosciences Pharmingen, La Jolla, Calif.) (Cho, H. J et al., “Immunostimulatory DNA-based vaccines induce cytotoxic lymphocyte activity by a T-helper cell-independent mechanism” [see comments], Nat Biotechnol 18, 509-14 (2000)), and the results presented in FIG. 2A-D. Data are mean±SEM of triplicates and are representative of three independent experiments. Minimum detection levels of these cytokines were 15 pg/mL.

[1] = tested on: pro-inflammatory cytokines (IL-6, TNF-α) in sera; assay: In vivo kinetics of pro-inflammatory cytokine induction after intravenous injection; design: species or system mouse; settings: 200 nmol per animal i.v.
Experimental: The pharmacokinetics of pro inflammatory cytokine induction by TLR7 conjugates was examined using 6- to 8-week old C57BL/6 mice. […] Blood samples were collected 2, 4, 6, 24 or 48 hours after injections. Sera were separated and kept at −20° C. until use.

Solubility observations = assay type: physicochemical
C57BL/6 mice [2] = settings: mouse, in vivo
Experimental: (§1) Peritoneal cells were collected four hours after TG injection. Total cells were counted by haematocytometer and neutrophils were morphologically identified.
(§2) 4 hours post TG injection total peritoneal cells were harvested and counted. Neutrophils were identified morphologically and counted.
(§3) One day after the last treatment, mice received intraperitoneal injection of 2 ml thioglycollate medium. […] Three hours after the thioglycollate injection, neutrophil infiltration to the peritoneum was evaluated.

mice = settings: cited from earlier work
C57BL/6 mice [3] = assay: Thioglycolate induced peritonitis (peritoneal neutrophil infiltration); settings: 50 nmoles i.v. for three days before thioglycolate
Experimental: as §1, §2, §3

COCCOc1nc(N)c2nc(O)n(Cc3ccccc3)c2n1 [SM, 9-benzyl-8-hydroxy-2-(2-methoxyethoxy) adenine, reference compound]
IL-12 and IL-6 induction (TLR7): little or no IL-12 and IL-6 | course of serum cytokine levels [1]: declined rapidly after 2 hours | solubility in aqueous solution (Solubility observations): insoluble | adverse reaction compared to TG (C57BL/6 mice [2]): no additional adverse reaction | adverse effects in mice (mice; Hayashi et al. 2008): anorexic effects and hypothermia | minimum dose that induced the anorectic reaction (mice; mucosal administration): 50 nmoles per mice | neutrophils recruited to the peritoneum (C57BL/6 mice [3]): reduction | total cells recruited to the peritoneum (C57BL/6 mice [3]): reduction
